In patent US12447156B2, “Treating progressive familial intrahepatic cholestasis (PFIC) with IBAT inhibitors” (ALBIREO AB, priority 2020, dated 2025):

Assay: Water content and water uptake of crystal modification 1 at different relative humidity
Assay type: physicochemical

## CCCCC1(CCCC)CN(c2ccccc2)c2cc(SC)c(OCC(=O)N[C@@H](C(=O)N[C@@H](CC)C(=O)O)c3ccc(O)cc3)cc2S(=O)(=O)N1 [crystal modification 1]
About 30% relative humidity, based on total crystal weight
  water content of crystal: about 3.5 % (w/w)
Between about 30 and about 70% RH
  hygroscopicity: relatively low hygroscopicity
Humidity increased up to 95% RH, fully reversible
  additional water taken up: 1.5 % (w/w)
